# Measurements: patent US20130102627A1, “Acridines As Inhibitors Of Haspin And DYRK Kinases” (THE BRIGHAM AND WOMEN'S HOSPITAL, INC., priority 2010, published 2013)
# Tests used:
# Format in all cases: biochemical
# PIM1 = PIM1 (Homo sapiens, UniProt P11309); test: Kinase profile panel IC50
# [1] = test system: panel of two hundred and seventy kinases; test: Functional inhibition profiling against kinase panel at 10 μM; conditions: panel of 270 kinases
# HIPK1 = HIPK1 (Homo sapiens, UniProt Q86Z02); test: Kinase profile panel IC50
# Chain of HIPK1 (Q86Z02 whole entry, species assumed): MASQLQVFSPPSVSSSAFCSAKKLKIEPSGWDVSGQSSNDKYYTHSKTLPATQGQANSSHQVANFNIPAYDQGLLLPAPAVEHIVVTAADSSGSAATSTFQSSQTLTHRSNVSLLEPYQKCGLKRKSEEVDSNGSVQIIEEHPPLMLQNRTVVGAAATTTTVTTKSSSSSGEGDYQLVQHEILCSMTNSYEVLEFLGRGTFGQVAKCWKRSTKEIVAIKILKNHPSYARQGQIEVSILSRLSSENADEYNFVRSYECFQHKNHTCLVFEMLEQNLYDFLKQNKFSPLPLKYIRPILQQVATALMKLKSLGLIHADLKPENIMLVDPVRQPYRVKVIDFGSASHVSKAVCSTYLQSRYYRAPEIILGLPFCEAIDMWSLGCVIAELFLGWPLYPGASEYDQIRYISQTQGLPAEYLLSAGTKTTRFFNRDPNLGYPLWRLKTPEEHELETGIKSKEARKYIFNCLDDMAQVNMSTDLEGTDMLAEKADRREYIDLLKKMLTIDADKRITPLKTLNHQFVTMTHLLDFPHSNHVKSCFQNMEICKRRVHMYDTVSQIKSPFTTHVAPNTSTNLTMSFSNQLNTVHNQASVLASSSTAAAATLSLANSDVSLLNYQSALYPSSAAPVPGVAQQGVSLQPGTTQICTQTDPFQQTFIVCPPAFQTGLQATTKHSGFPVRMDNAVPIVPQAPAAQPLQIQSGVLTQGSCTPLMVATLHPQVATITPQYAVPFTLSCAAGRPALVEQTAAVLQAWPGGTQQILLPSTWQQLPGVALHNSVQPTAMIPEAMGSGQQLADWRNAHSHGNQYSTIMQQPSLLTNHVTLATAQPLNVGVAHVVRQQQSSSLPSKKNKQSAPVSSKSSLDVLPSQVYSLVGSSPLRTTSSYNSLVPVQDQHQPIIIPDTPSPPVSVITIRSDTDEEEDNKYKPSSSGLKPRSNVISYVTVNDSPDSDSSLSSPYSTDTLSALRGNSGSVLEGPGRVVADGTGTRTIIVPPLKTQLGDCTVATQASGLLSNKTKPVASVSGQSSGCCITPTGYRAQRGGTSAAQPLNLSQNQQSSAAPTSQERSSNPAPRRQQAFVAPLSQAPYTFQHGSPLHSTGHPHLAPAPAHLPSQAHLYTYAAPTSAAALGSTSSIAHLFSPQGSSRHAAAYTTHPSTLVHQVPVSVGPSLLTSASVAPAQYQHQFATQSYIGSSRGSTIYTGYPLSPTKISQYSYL
# HIPK2 = HIPK2 (Homo sapiens, UniProt Q9H2X6); test: Kinase profile panel IC50
# Chain of HIPK2 (Q9H2X6 whole entry, species assumed): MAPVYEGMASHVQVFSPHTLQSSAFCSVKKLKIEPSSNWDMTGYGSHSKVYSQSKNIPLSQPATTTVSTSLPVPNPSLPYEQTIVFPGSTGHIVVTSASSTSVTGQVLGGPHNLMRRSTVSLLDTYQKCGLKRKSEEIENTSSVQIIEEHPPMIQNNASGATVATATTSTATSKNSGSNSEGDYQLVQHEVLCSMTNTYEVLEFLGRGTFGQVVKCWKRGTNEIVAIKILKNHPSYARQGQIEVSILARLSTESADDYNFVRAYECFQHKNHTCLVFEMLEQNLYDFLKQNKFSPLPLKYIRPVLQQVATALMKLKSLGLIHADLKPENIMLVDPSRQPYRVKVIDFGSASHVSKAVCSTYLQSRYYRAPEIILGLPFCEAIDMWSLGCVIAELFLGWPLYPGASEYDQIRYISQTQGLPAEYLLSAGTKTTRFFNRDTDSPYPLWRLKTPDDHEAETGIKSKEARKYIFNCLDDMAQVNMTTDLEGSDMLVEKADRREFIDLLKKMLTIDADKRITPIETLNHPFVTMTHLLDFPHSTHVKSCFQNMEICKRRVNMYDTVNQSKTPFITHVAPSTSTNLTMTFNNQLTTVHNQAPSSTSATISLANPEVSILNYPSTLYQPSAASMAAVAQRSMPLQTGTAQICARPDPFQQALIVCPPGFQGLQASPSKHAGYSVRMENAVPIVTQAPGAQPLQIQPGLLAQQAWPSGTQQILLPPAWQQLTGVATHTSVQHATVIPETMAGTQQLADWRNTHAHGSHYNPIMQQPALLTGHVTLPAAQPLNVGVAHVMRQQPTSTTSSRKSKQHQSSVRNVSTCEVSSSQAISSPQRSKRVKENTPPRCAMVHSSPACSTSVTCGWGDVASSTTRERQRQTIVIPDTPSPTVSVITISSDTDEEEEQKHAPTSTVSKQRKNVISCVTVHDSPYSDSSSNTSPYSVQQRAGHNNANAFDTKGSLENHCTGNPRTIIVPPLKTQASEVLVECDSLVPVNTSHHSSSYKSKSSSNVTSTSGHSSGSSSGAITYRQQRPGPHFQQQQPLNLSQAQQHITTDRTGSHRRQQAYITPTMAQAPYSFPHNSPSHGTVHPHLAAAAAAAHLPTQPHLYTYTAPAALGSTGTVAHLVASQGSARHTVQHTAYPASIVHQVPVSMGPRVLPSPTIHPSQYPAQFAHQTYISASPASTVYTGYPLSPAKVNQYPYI
# haspin = target: T1, haspin (Homo sapiens, UniProt Q8TF76); test: Carna Bioscience haspin assay
# T1 construct: purchased Carna Bioscience (vendor's assay)
# T1 sequence (Q8TF76 1-798): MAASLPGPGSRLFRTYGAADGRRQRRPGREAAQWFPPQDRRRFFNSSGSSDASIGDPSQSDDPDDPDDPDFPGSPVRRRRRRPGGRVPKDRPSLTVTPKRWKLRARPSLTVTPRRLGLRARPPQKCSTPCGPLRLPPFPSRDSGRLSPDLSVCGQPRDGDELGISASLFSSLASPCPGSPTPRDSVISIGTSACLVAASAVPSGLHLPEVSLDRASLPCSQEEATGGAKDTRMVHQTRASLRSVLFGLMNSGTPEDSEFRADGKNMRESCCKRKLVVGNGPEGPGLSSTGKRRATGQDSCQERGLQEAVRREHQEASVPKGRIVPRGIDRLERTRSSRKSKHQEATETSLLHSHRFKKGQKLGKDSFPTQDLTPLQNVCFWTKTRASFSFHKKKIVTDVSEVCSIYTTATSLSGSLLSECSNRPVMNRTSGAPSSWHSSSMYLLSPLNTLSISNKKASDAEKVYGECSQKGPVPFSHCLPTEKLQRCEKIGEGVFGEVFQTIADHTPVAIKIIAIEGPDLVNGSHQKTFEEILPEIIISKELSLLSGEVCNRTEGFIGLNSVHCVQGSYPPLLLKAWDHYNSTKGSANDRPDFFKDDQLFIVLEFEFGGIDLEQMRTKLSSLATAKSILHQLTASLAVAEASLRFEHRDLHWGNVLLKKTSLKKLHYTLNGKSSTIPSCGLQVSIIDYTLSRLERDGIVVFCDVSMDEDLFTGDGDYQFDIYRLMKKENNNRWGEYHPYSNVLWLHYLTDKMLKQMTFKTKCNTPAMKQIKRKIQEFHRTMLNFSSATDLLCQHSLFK
# ROS = ROS (Homo sapiens, UniProt P08922); test: Kinase profile panel IC50
# Chain of ROS (P08922 28-2347, species assumed): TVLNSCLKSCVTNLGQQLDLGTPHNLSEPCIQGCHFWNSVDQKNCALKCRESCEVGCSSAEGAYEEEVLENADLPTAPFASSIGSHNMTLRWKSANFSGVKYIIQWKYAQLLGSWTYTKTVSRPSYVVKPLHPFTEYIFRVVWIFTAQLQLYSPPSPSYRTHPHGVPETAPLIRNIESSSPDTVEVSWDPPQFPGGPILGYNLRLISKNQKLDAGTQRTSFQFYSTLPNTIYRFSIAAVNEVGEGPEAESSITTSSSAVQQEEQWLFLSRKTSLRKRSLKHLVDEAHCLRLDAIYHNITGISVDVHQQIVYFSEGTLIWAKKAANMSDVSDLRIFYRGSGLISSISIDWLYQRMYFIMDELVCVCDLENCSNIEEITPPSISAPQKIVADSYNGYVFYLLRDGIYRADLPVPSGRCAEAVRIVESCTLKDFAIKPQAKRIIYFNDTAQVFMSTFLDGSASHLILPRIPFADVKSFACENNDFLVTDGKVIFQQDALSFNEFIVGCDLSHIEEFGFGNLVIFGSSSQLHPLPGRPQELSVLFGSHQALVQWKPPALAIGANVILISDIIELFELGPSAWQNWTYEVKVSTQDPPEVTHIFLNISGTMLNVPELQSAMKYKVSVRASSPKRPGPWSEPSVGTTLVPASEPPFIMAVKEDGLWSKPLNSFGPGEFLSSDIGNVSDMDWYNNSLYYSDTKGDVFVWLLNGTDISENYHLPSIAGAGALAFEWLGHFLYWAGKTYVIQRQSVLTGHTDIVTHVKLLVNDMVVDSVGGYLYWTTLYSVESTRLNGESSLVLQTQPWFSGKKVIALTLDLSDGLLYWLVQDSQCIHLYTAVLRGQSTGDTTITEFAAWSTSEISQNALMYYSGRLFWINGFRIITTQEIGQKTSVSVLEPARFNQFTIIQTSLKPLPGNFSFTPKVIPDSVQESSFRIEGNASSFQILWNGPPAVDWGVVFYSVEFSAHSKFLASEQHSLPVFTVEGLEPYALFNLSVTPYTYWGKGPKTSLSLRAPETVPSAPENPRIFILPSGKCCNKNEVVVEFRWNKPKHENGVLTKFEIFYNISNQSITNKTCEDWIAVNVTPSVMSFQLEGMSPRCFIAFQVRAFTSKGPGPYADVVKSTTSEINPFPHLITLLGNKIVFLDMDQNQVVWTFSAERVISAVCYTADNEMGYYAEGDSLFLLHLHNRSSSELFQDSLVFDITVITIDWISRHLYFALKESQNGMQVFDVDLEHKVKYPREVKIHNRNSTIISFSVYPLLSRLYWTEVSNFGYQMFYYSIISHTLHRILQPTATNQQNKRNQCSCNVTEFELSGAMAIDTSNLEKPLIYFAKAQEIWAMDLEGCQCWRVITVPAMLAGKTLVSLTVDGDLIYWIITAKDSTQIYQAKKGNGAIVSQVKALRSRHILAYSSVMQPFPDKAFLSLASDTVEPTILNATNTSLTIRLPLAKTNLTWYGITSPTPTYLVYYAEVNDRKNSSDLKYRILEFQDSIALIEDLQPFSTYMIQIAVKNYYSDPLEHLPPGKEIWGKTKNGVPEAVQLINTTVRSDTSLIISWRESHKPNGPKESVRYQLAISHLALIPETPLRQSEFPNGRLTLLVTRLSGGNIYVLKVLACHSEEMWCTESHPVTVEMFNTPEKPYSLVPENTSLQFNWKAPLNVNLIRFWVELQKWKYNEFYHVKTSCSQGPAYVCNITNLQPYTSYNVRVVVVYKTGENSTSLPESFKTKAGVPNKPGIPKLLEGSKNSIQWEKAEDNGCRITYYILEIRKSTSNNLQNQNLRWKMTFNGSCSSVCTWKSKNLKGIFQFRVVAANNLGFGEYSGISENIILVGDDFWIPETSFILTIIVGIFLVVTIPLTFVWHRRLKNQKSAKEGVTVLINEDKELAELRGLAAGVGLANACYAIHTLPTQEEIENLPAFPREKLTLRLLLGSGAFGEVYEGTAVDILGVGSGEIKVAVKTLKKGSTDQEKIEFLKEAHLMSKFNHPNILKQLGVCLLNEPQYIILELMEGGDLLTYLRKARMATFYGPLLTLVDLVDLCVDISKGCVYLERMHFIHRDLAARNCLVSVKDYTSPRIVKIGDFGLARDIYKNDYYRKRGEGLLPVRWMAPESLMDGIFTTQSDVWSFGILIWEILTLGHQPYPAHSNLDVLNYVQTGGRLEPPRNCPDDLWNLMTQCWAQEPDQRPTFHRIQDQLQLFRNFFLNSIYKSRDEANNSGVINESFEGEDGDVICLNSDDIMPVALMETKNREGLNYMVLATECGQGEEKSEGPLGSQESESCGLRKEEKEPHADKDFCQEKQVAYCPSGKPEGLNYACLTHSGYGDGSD
# PIM2 = PIM2 (Homo sapiens, UniProt Q9P1W9); test: Kinase profile panel IC50
# Chain of PIM2 (Q9P1W9 whole entry, species assumed): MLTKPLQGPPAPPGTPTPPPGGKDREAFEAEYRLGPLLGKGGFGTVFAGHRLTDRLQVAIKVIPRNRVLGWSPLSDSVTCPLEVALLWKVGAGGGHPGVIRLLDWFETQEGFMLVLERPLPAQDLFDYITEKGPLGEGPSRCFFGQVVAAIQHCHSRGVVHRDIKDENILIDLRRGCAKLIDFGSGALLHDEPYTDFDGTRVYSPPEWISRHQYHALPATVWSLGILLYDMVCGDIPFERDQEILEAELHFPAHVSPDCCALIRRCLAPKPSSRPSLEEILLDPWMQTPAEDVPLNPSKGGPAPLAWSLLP
# TRKB = TRKB (Homo sapiens, UniProt Q16620); test: Kinase profile panel IC50
# human DYRK2 (GST-DYRK2) = target: T2, human DYRK2 (GST-DYRK2) (Homo sapiens, UniProt Q92630); test: DYRK2 inhibitor assay (33P incorporation into Woodtide peptide); conditions: for IC50: DYRK2 assay of Example 7; for DYRK2 inhibitory activity (SAR, in words): compared with LDN-192960
# T2 construct: purchased Carna Biosciences, Japan
# T2 sequence (Q92630 1-601): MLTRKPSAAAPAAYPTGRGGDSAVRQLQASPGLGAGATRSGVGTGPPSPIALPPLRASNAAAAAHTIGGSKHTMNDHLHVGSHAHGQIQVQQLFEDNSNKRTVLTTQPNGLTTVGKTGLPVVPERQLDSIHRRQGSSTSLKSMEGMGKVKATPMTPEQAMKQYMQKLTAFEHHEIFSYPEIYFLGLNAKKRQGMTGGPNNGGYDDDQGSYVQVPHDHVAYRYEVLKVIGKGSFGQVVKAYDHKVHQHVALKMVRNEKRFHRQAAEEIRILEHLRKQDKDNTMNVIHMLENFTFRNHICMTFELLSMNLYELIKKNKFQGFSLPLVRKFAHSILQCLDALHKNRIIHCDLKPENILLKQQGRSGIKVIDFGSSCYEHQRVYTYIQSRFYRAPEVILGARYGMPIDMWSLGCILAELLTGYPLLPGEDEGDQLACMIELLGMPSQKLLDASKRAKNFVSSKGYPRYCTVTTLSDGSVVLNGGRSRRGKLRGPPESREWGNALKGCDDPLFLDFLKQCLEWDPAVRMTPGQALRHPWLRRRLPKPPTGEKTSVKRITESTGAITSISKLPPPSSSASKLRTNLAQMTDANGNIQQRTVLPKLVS
# Description: Reactions were stopped after 10 minutes by addition of 30 mM EDTA followed by spotting 10 μl of the reaction mix on to P81 phosphocellulose filter (Whatman). […] Background level of ^33P incorporation was defined from control reaction lacking peptide.
# (§1) The human haspin kinase inhibitory activity of the various compounds was evaluated using the same assay utilized for the HTS, except in the presence of varying test compound concentrations. DYRK2 kinase inhibitory activity was measured by ^33P-incorporation into Woodtide peptide substrate in the presence of human DYRK2 containing an N-terminal GST-fusion protein and γ^33P-ATP.
# [2] = target: T3, human Haspin (MBP-Haspin) (Homo sapiens, UniProt Q8TF76); test: TR-FRET Haspin assay; conditions: for haspin inhibitory activity (SAR, in words): compared with LDN-192960
# T3 construct: This full-length Haspin gene was cloned into the pMALc2E vector; made in house; host or cells: E. coli Rosetta2(DE3)pLysS
# T3 sequence (Q8TF76 1-798): T1 sequence (Q8TF76 1-798)
# Source text: To identify Haspin inhibitors by high throughput screening, a homogeneous kinase assay based on time-resolved fluorescence resonance energy transfer (TR-FRET) was designed. […] Such TR-FRET assays use a lanthanide donor species conjugated to a phospho-specific antibody that binds specifically to the product of kinase reaction labeled with an acceptor fluorophore. This induced proximity of the donor and acceptor fluorophores leads to resonance energy transfer, resulting in a detectable increase of TR-FRET signal.
# In the assay described below, a Europium chelate, conjugated to an anti-Histone H3T3ph antibody, as the donor species was used. The acceptor fluorophore, allophycocyanin (APC) was used as a streptavidin conjugate that could bind to a biotinylated Histone H3 peptide substrate. […] Lanthanide ions like Europium have a much longer emission lifetime, often measured in hundreds of microseconds, compared with traditional organic reagents that have lifetimes measured on the scale of […]. TR-FRET assays are thus less susceptible to compound interference generated by short-lived compound or matrix component fluorescence. Furthermore, TR-FRET can be carried out in a homogeneous format that avoids time-consuming separation steps that introduce variability. Based on these properties TR-FRET based assay kinases have been widely used in high throughput screening.
# The reaction was incubated for 10 minutes at room temperature. Reaction was terminated by the addition of 10 μl 50 mM EDTA, 2 nM Europium labeled anti-Histone H3T3ph antibody, 40 nM Streptavidin-APC.
# Data were analyzed using GraphPad Prism Version 4 (GraphPad Software Inc, La Jolla, Calif.). No inhibitor (“MAX”) and Staurosporine inhibitor (“MIN”) controls were used to calculate Z′ values and signal to background ratios during the high throughput screen. […] Km concentrations were also determined by non-linear regression.
# as §1
IC50 (human DYRK2 (GST-DYRK2)) [nM],"DYRK2 inhibitory activity (SAR, in words) (human DYRK2 (GST-DYRK2))",IC50 ([2]; TR-FRET assay of Example 3) [nM],"haspin inhibitory activity (SAR, in words) [2]",Structure (SMILES),also measured
,,,,COc1ccc2nc3ccc(OC)cc3c(SCCCN)c2c1 [LDN-192960],IC50 (PIM1): 720 nM; number of other kinases inhibited by ≧90% [1]: ten; IC50 (HIPK1): 1400 nM; IC50 (HIPK2): 1300 nM; inhibition at 10 µM (haspin): 100%; IC50 (ROS): 1600 nM; IC50 (PIM2): 56000 nM; IC50 (TRKB): 91000 nM
> 10000,loss in activity,> 20000,loss of activity,COc1cc2nc3ccccc3c(SCCCN)c2cc1OC [LDN-192965],
< 200,,< 50,,NCCCSc1c2cc(O)ccc2nc2ccc(O)cc12 [LDN-209838],
> 10000,,> 20000,,COc1cc(OC)c2nc3ccccc3c(NCCCN(C)C)c2c1 [LDN-209839],
> 1000,,> 20000,,CCN(CC)CCCNc1c2ccccc2nc2c(OC)cc(OC)cc12 [LDN-209840],
< 200,significant erosion of potency,< 50,,COc1ccc2nc3ccccc3c(SCCCN)c2c1 [LDN-209856],IC50 ([2]; text of SAR study): < 100 nM
< 500,,< 200,reduced activity,COc1ccc2nc3ccc(OC)cc3c(SCCN)c2c1 [LDN-209958],
< 50,,< 50,only a minimal impact on potency,COc1ccc2nc3ccc(OC)cc3c(SCCCCN)c2c1 [LDN-209959],
< 200,,< 10,equally potent,CNCCCSc1c2cc(OC)ccc2nc2ccc(OC)cc12 [LDN-209960],
< 10000,detrimental to DYRK2 inhibition,< 5000,detrimental,COc1ccc2nc3ccc(OC)cc3c(NCCCN)c2c1 [LDN-209962],
> 20000,detrimental to DYRK2 inhibition,> 20000,detrimental,COc1ccc2nc3ccc(OC)cc3c(OCCCN)c2c1 [LDN-209963],
> 10000,,< 10000,,COc1ccc2nc(-c3ccccc3)cc(SCCCN)c2c1 [LDN-209964],
< 10000,,< 500,,COc1ccc2nc3c(c(SCCCN)c2c1)CCCC3 [LDN-211840],
,moderately potent,< 10000,significant loss of activity,COc1ccc2nc3ccc(OC)cc3c(SCCCN3C(=O)c4ccccc4C3=O)c2c1 [LDN-211848],
< 1000,,< 10000,significant loss of activity,COc1ccc2nc3ccccc3c(SCCCN3C(=O)c4ccccc4C3=O)c2c1 [LDN-211849],
< 500,,< 50,slight decrease in activity,COc1ccc2nc3ccc(OC)cc3c(SCCCN(C)C)c2c1 [LDN-212055],

Structure (SMILES),IC50 (human DYRK2 (GST-DYRK2)) [nM],"DYRK2 inhibitory activity (SAR, in words) (human DYRK2 (GST-DYRK2))",IC50 ([2]; TR-FRET assay of Example 3) [nM],"haspin inhibitory activity (SAR, in words) [2]",also measured
COc1ccc2nc3ccc(C)cc3c(SCCCN)c2c1 [LDN-209928],< 500,not as tolerated,< 100,,IC50 ([2]; text of SAR study): < 100 nM
COc1ccc2nc3ccc(Cl)cc3c(SCCCN)c2c1 [LDN-209929],< 10000,not as tolerated,< 100,,selectivity for haspin versus DYRK2 [2]: 180 fold; IC50 ([2]; text of SAR study): < 60 nM
COc1cc2c(SCCCN)c3ccccc3nc2cc1Cl [LDN-209957],< 10000,not tolerated,< 100,still quite active,
NCCCSc1c2ccccc2nc2ccccc12 [LDN-209961],< 10000,very detrimental,< 10000,inhibitory activity was dramatically reduced,
COc1ccc2nc3ccc(OC)cc3c(CCCCN)c2c1 [LDN-209973],< 500,tolerated,< 50,retained potent inhibitory activity,reduction in DYRK2 potency (human DYRK2 (GST-DYRK2); relative to LDN-192960 (sulfur replaced with methylene)): 5 fold
